± gives the expanded uncertainty stated by the source.
Details: Liquid, Ebulliometric method (Recirculating still)

Structure (SMILES): CC(=O)CC(C)C [4-methylpentan-2-one]
- vapor or sublimation pressure (389.15 K): 101.3 ± 3 kPa

Structure (SMILES): CC(=O)N(C)C [N,N-dimethylethanamide]
- vapor or sublimation pressure (439.15 K): 101.3 ± 3 kPa

Structure (SMILES): CCCCO [butan-1-ol]
- vapor or sublimation pressure (390.75 K): 101.3 ± 3 kPa
